Laboratory results: article PMC8972196, “A Set of Experimentally Validated Decoys for the Human CC Chemokine Receptor 7 (CCR7) Obtained by Virtual Screening” (Frontiers in Pharmacology, 2022)
Read-outs that look alike come from different tables or passages of the source.

Experiments:
CCR7 = system: CCR7; design: method as in Jaeger et al., 2019; details: result in words; ref Jaeger et al., 2019; cited from earlier work
human CCR7 = target: T1, human CCR7 (Homo sapiens, UniProt P32248); assay: CCL19-induced calcium mobilization assay, U87.CD4 cells expressing CCR7; assay type: cell-based; details: for IC50: read-out: IC50 [μM] block CCL19 induced calcium signaling
T1 construct: expressed in transfected cells
T1 sequence (P32248 25-378): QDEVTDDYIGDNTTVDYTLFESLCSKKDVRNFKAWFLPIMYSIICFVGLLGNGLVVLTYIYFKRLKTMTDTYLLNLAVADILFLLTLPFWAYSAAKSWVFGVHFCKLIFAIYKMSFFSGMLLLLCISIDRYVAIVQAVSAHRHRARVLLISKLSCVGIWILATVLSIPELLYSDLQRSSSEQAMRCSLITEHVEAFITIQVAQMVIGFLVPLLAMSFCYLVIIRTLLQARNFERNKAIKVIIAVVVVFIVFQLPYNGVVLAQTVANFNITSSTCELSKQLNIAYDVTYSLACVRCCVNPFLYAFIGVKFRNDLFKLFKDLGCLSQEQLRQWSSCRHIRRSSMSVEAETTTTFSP
How it was run: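 U87.CD4 cells stably expressing human CCR7, CXCR2 or CCR5 were seeded at 20,000 cells/well and incubated overnight at 37°C and 5% CO2. Cells were then incubated for 45 min at room temperature in the dark before calcium responses were recorded. CCR7 responses were induced with CCL19 and CXCR2 responses with CXCL8.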

[1] = CCL19 induced calcium signaling
[2] = classification as decoy or active on CCR7
[3] = CCL19-induced calcium signaling
[4] = classification of tested compounds as decoy or active

SMILES | thermal stabilization of CCR7 (CCR7) | IC50 (human CCR7; [1]) [µM] | Decoy – 0 Active – 1 (human CCR7; [2]) | IC50 (human CCR7; [3]) [µM] | Decoy – 0 Active – 1 (human CCR7; [4])
CC(C)(C)c1ccc(S(=O)(=O)Nc2ccc(Cl)cc2C(=O)c2cc[n+]([O-])cc2)cc1 [Vercirnon] | completely lacked the ability to thermally stabilize CCR7 |  |  |  | 
CCOc1ccc(NC(=O)C2CCN(C3=NS(=O)(=O)C(c4ccc(OC)cc4)=C3C)CC2)cc1 [CS-1] | hits in the thermofluor stability assay, albeit less potent than cmp2105 and navarixin |  |  |  | 
O=C(NCc1cccnc1)c1ccccc1NS(=O)(=O)c1ccc2c(c1)OCCO2 [C239, c1ccc(c(c1)C(=O)NCc2cccnc2)NS(=O)(=O)c3ccc4c(c3)OCCO4] |  | > 50 | 0 |  | 
Cc1c(C(=O)NCC2CC2)sc2ncnc(NCCc3ccccn3)c12 [C093, Cc1c(C(=O)NCC2CC2)sc2ncnc(NCCc3ccccn3)c12] |  |  |  | > 50 | 0
O=C1NCCN1CCNC(=S)Nc1cc(C(F)(F)F)cc(C(F)(F)F)c1 [C034, FC(F)(F)c1cc(NC(=S)NCCN2CCNC2=O)cc(c1)C(F)(F)F] |  |  |  | > 30 | 0
Cc1cnc([C@@H](C)CNC(=O)Nc2ccc3c(c2)S(=O)(=O)CC3)s1 [C113, Cc1cnc([C@@H](C)CNC(=O)Nc2ccc3c(c2)S(=O)(=O)CC3)s1] |  |  |  | > 50 | 0
CNC(=O)c1cccc(NC(=O)NCC(C)(C)c2cccs2)c1C [C126, CNC(=O)c1cccc(NC(=O)NCC(C)(C)c2cccs2)c1C] |  |  |  | > 50 | 0
Cc1ccc(NC2=NC(=O)SC2=Cc2ccco2)cc1 [C078, Cc1ccc(NC2=[NH+]C(=O)SC2=Cc2ccco2)cc1] |  |  |  | > 10 | 0
C[C@@H]1CCN(Cc2ccccc2)C[C@H]1Nc1nccc(C(N)=O)c1[N+](=O)[O-] [C116, C[C@@H]1CC[N@H+](Cc2ccccc2)C[C@H]1Nc1nccc(C(N)=O)c1[N+](=O)[O-]] |  |  |  | > 50 | 0
CN(C)C(=O)c1cccc(CN2CCC[C@@H]2C[C@H](O)c2cnn(C)c2)c1 [C110, CN(C)C(=O)c1cccc(C[N@@H+]2CCC[C@@H]2C[C@H](O)c2cnn(C)c2)c1] |  |  |  | > 50 | 0
O=C(N[C@@H](c1nccs1)C1CC1)c1cc(N2CCOCC2)ccn1 [C147, O=C(N[C@@H](c1nccs1)C1CC1)c1cc(N2CCOCC2)cc[nH+]1] |  |  |  | > 50 | 0
O=c1c(Nc2cc(C(F)(F)F)cc(C(F)(F)F)c2)c(N[C@H]2CCCC[C@@H]2N2CCCCC2)c1=O [C023, O=C1C(N[C@H]2CCCC[C@@H]2N3CCCCC3)=C(NC4=CC(C(F)(F)F)=CC(C(F)(F)F)=C4)C1=O] |  |  |  | > 50 | 0
O=C(c1ccnc(N[C@H]2CCCN(Cc3cccnc3)C2)c1)N1CCCC1 [C087, O=C(c1ccnc(N[C@H]2CCC[N@@H+](Cc3cccnc3)C2)c1)N1CCCC1] |  |  |  | > 50 | 0
COc1ccc(CNc2c(NCc3ccc4c(c3)OCO4)c(=O)c2=O)cc1 [C012, COc1ccc(CNc2c(NCc3ccc4c(c3)OCO4)c(=O)c2=O)cc1] |  |  |  | > 50 | 0
CN(C)CC(C)(C)CNC(=O)C(=O)Nc1cccc(C(=O)N(C)C)c1 [C070, CN(C)C(=O)c1cccc(NC(=O)C(=O)NCC(C)(C)C[NH+](C)C)c1] |  |  |  | > 10 | 0
COc1cccc(N2CC(NC(=O)c3cccc4ccccc34)CC2=O)c1 (stereo not drawn) [C188, COc1cccc(N2CC(NC(=O)c3cccc4ccccc34)CC2=O)c1] |  | > 50 | 0 |  | 
CC[C@H](NC(=O)N(CCO)Cc1ccc(F)cc1)c1nc(C)no1 [C163, CC[C@H](NC(=O)N(CCO)Cc1ccc(F)cc1)c1nc(C)no1] |  | > 50 | 0 |  | 
CC(=O)N1CCC2(CC1)CC(C(=O)O)N(C(=O)c1ccc(C)c3ccccc13)C2 (stereo not drawn) [C212, CC(=O)N1CCC2(CC1)CC(C(=O)[O-])N(C(=O)c1ccc(C)c3ccccc13)C2] |  | > 50 | 0 |  | 
Cc1cc(NCCn2cccn2)c2ccc(C(F)(F)F)cc2n1 [C162, Cc1cc(NCCn2cccn2)c2ccc(C(F)(F)F)cc2[nH+]1] |  | > 50 | 0 |  | 
CCN(Cc1ccc(Cl)cc1)Cc1cc(=O)c2cccc(F)c2[nH]1 [C278, CCN(Cc1ccc(Cl)cc1)Cc1cc(=O)c2cccc(F)c2[nH]1] |  | > 50 | 0 |  | 
CCOC(=O)NC(=S)Nc1ccc2nsnc2c1 [C044, S=C(NC1=CC2=NSN=C2C=C1)NC(OCC)=O] |  |  |  | > 30 | 0
FC(F)(F)c1cccc(Cn2cnc(NC(=S)NCCc3ccccc3)n2)c1 [C027, FC(F)(F)c1cccc(Cn2cnc(NC(=S)NCCc3ccccc3)n2)c1] |  |  |  | > 30 | 0
